Data as given in patent US8618152B2, “Inhibitors of serine proteases, particularly HCV NS3-NS4A proteases” (Vertex Pharmaceuticals Incorporated, priority 2003, dated 2013).
pKi: −log10 of the molar value. *1 amine or outer side, *2 acyl side, *3 side chain or, on linkers, in order; H or OH if unused. Where a SMILES comes first, the peptide text is derived from it. [ ]: non-standard residue; d: D form. The star is where a group is joined. Pro(trans-3-iPr) = CC(C)[C@H]1CCN[C@@H]1C(=O)O; Pro(3S-Et) = CC[C@H]1CCN[C@@H]1C(=O)O; Phe(2-Me) = Cc1ccccc1C[C@H](N)C(=O)O; Pyrazinecarbonyl = O=C(c1cnccn1)*; X1 = CCCC(N[*:1])C(=O)C(=O)[*:2]; Chg = N[C@H](C(=O)O)C1CCCCC1; Tle = CC(C)(C)[C@H](N)C(=O)O

What follows are compounds tested against HCV NS3-NS4A protease (tNS3 with KK4A) (Hepatitis C virus genotype 1a, UniProt P27958) (assay: HCV Ki assay (HPLC microbore separation of 5AB substrate and products)). Conditions: 25 nM tNS3, 25 μM KK4A, 25 μM 5AB substrate, 20 min at 30 C; read-out: Ki.
Sequence of HCV NS3-NS4A protease (tNS3 with KK4A) (P27958 1027-1208): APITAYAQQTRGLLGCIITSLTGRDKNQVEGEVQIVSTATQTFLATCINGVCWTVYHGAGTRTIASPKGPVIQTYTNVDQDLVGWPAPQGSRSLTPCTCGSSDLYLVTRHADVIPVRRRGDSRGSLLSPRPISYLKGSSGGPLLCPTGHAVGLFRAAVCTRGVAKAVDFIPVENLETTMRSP
Assay type: biochemical
Protocol: HPLC Microbore Method for Separation of 5AB Substrate and Products
Substrate: NH2-Glu-Asp-Val-Val-(alpha)Abu-Cys-Ser-Met-Ser-Tyr-COOH
A stock solution of 20 mM 5AB (or concentration of your choice) was made in DMSO w/0.2M DTT. This was stored in aliquots at −20 C.
Buffer: 50 mM HEPES, pH 7.8; 20% glycerol; 100 mM NaCl
Total assay volume was 100 μL
The buffer, KK4A, DTT, and tNS3 were combined; distributed 78 μL each into wells of 96 well plate. This was incubated at 30 C for ˜5-10 min.
2.5 μL of appropriate concentration of test compound was dissolved in DMSO (DMSO only for control) and added to each well. This was incubated at room temperature for 15 min.
Initiated reaction by addition of 20 μL of 250 μM 5AB substrate (25 μM concentration is equivalent or slightly lower than the Km for 5AB).
Incubated for 20 min at 30 C.
Terminated reaction by addition of 25 μL of 10% TFA
Transferred 120 μL aliquots to HPLC vials
Separated SMSY product from substrate and KK4A by the following method:
Microbore Separation Method:
Instrumentation: Agilent 1100
Column thermostated chamber G1316A
Diode array detector G1315A
Solvent A=HPLC grade water+0.1% TFA
Solvent B=HPLC grade acetonitrile+0.1% TFA
Stop time: 17 min Post-run time: 10 min.

SMILES	pKi
CCCC(NC(=O)[C@@H]1[C@@H](CC)CCN1C(=O)[C@@H](NC(=O)[C@@H](NC(=O)c1cnccn1)C1CCCCC1)C(C)C)C(=O)C(=O)N[C@@H](Cc1ccccc1)C(=O)O (stereo partly drawn) [Compound 26] (Pyrazinecarbonyl-[Chg]V[Pro(3S-Et)][X1]F-OH)	> 7.00
CCCC(NC(=O)[C@@H]1[C@@H](CC)CCN1C(=O)[C@@H](NC(=O)[C@@H](NC(=O)c1cnccn1)C1CCCCC1)C1CCCCC1)C(=O)C(=O)N[C@@H](Cc1ccccc1)C(=O)O (stereo partly drawn) [Compound 42] (Pyrazinecarbonyl-[Chg][Chg][Pro(3S-Et)][X1]F-OH)	> 7.00
CCCC(NC(=O)[C@@H]1[C@@H](CC)CCN1C(=O)[C@@H](NC(=O)[C@@H](NC(=O)c1cnccn1)C(C)C)C1CCCCC1)C(=O)C(=O)N[C@@H](Cc1ccccc1)C(=O)O (stereo partly drawn) [Compound 32] (Pyrazinecarbonyl-V[Chg][Pro(3S-Et)][X1]F-OH)	6.30 to 7.00
CCCC(NC(=O)[C@@H]1[C@@H](CC)CCN1C(=O)[C@@H](NC(=O)[C@@H](NC(=O)c1cnccn1)C1CCCCC1)C(C)C)C(=O)C(=O)NC1CC1 (stereo partly drawn) [Compound 45]	< 6.30
CCCC(NC(=O)[C@@H]1[C@@H](CC)CCN1C(=O)[C@@H](NC(=O)[C@@H](NC(=O)c1cnccn1)C(C)C)[C@@H](C)OCC)C(=O)C(=O)N[C@@H](Cc1ccccc1)C(=O)O (stereo partly drawn) [Compound 36] (Pyrazinecarbonyl-VT(Et)[Pro(3S-Et)][X1]F-OH)	6.30 to 7.00
CCCC(NC(=O)[C@@H]1[C@@H](C(=O)OC)CCN1C(=O)[C@@H](NC(=O)[C@@H](NC(=O)c1cnccn1)C(C)C)C(C)C)C(=O)C(=O)N[C@@H](Cc1ccccc1)C(=O)O (stereo partly drawn) [Compound 15]	6.30 to 7.00
CCCC(NC(=O)[C@@H]1[C@@H](CC)CCN1C(=O)[C@@H](NC(=O)[C@@H](NC(=O)c1cnccn1)C1CCCCC1)C(C)CC)C(=O)C(=O)NC1CC1 (stereo partly drawn) [Compound 25]	6.30 to 7.00
CCCC(NC(=O)[C@@H]1[C@@H](C(C)C)CCN1C(=O)[C@@H](NC(=O)[C@@H](NC(=O)c1cnccn1)C(C)C)C(C)C)C(=O)C(=O)N[C@@H](Cc1ccccc1)C(=O)O (stereo partly drawn) [Compound 16] (Pyrazinecarbonyl-VV[Pro(trans-3-iPr)][X1]F-OH)	6.30 to 7.00
CCCC(NC(=O)[C@@H]1[C@@H](CC)CCN1C(=O)[C@@H](NC(=O)[C@@H](NC(=O)c1cnccn1)C1CCCCC1)C1CCCCC1)C(=O)C(=O)NC1CC1 (stereo partly drawn) [Compound 46]	6.30 to 7.00
CCCC(NC(=O)[C@@H]1[C@@H](CC)CCN1C(=O)[C@@H](NC(=O)[C@@H](NC(=O)c1cnccn1)C1CCCCC1)C(C)CC)C(=O)C(=O)N[C@@H](C)c1ccccc1 (stereo partly drawn) [Compound 51]	6.30 to 7.00
CCCC(NC(=O)[C@@H]1[C@@H](CC)CCN1C(=O)[C@@H](NC(=O)[C@@H](NC(=O)c1cnccn1)C(C)C)C(C)(C)C)C(=O)C(=O)N[C@@H](Cc1ccccc1)C(=O)O (stereo partly drawn) [Compound 31] (Pyrazinecarbonyl-V[Tle][Pro(3S-Et)][X1]F-OH)	> 7.00
CCCC(NC(=O)[C@@H]1[C@@H](CC)CCN1C(=O)[C@@H](NC(=O)[C@@H](NC(=O)c1cnccn1)C1CCCCC1)C1CCCCC1)C(=O)C(=O)N[C@@H](C)c1ccccc1 (stereo partly drawn) [Compound 50]	6.30 to 7.00
CCCC(NC(=O)[C@@H]1[C@@H](CC)CCN1C(=O)[C@@H](NC(=O)[C@@H](NC(=O)c1ncc[nH]1)C1CCCCC1)C(C)C)C(=O)C(=O)NC1CC1 (stereo partly drawn) [Compound 53]	6.30 to 7.00
CCCC(NC(=O)[C@@H]1[C@@H](CC)CCN1C(=O)[C@@H](NC(=O)[C@H](Cc1ccccc1C)NC(=O)c1cnccn1)C(C)C)C(=O)C(=O)N[C@@H](Cc1ccccc1)C(=O)O (stereo partly drawn) [Compound 27] (Pyrazinecarbonyl-[Phe(2-Me)]V[Pro(3S-Et)][X1]F-OH)	> 7.00
CCCC(NC(=O)[C@@H]1[C@@H](CC)CCN1C(=O)[C@@H](NC(=O)[C@@H](NC(=O)c1cnccn1)C1CCCCC1)C(C)C)C(=O)C(=O)N[C@@H](C)c1ccccc1 (stereo partly drawn) [Compound 43]	6.30 to 7.00
